The target in test [1] is T1, Isovaleryl-CoA dehydrogenase (IVD) (Homo sapiens, UniProt P26440).
T1 sequence (P26440 33-426): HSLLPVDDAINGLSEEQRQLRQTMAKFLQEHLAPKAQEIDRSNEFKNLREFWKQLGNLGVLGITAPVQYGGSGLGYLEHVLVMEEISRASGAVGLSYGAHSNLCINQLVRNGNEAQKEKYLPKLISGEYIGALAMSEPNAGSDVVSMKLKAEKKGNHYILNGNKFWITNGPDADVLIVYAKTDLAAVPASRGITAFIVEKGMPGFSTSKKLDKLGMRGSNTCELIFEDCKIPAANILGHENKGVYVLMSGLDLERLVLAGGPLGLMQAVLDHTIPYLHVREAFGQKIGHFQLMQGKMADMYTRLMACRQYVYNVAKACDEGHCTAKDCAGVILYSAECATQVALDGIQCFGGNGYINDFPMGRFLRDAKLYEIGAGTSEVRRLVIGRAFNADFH
Kind of test: anaerobic UV/visible spectral titration. Type of test: binding.

In test [2] the target is T2, recombinant human isovaleryl-CoA dehydrogenase, CoA-persulfide-free (human, UniProt P26440 33-426).
T2 sequence: T1 sequence (P26440 33-426)
As to the kind of experiment: competitive inhibition of enzyme activity.

The Kd is the constant that tells how readily two partners part at equilibrium. The molecule `CC(C)CC(=O)SCCNC(=O)CCNC(=O)[C@H](O)C(C)(C)COP(=O)(O)OP(=O)(O)OC[C@H]1O[C@@H](n2cnc3c(N)ncnc32)[C@H](O)[C@@H]1OP(=O)(O)O` [isovaleryl-CoA] gave a Kd in test [1] of 0.54 µM. What is called Ki is the dissociation constant of the complex between target and ligand, obtained from inhibition or displacement. Turning to RYATLPNIMKAK [ETF docking peptide, ETF βArg191-βLys202], in test [2], the Ki turned out to be 1500 µM.

For the origin of these results see PMC4280362 (Biochimie, 2014).
